Measurements as given in paper PMC6792352, “Limited Chemical Structural Diversity Found to Modulate Thyroid Hormone Receptor in the Tox21 Chemical Library” (Environmental Health Perspectives, 2019).
Counter-ions that a name gives are not always drawn.

Assay: in vitro
Settings: rat, gh3-tre-luc cells

Compound	CC50 at 24 h (AC50 (uM) modified / 1000) [µM]	further results
C[C@H]1N=C(N)O[C@H]1c1ccccc1 (stereo in doubt) [(4R,5S)-4-methyl-5-phenyl-4,5-dihydro-1,3-oxazol-2-amine]		CC50 at 24 h (AC50 (uM) modified / 1000, Tox21_110001=Tox21_112818, viability, 1 nM T3 present, 24 h): > 90 µM
CCOC(=O)c1cncn1[C@H](C)c1ccccc1 [Etomidate]		CC50 at 24 h (AC50 (uM) modified / 1000, Tox21_110001=Tox21_110628, viability, 1 nM T3 present, 24 h): > 20 µM
CC(C)c1cccc(C(C)C)c1N1C(=O)c2ccc(O)cc2C1=O [5HPP-33]	> 90	
C[C@@H](c1ncncc1F)[C@](O)(Cn1cncn1)c1ccc(F)cc1F [Voriconazole]	> 50	
O=C(CN1CCN(Cc2ccc3c(c2)OCO3)CC1)N1c2ccccc2Sc2ccccc21 [Fenoverine]	23.4	
C=CC(=O)NC(C)C [N-Isopropylacrylamide]	> 90	
C[N+]1(CC2COC(c3ccccc3)(c3ccccc3)O2)CCCCC1 (stereo not shown) [Anacolin]	> 50	
C=CCN1CCc2nc(N)sc2CC1 [Talipexole]	> 50	
O=C1Nc2ccc([N+](=O)[O-])cc2C1=O [5-Nitroisatin]	> 90	
NC(=S)N/N=C/c1cccnc1 [Nicothiazone]	> 50	
Cc1c(C(N)=O)cc([N+](=O)[O-])cc1[N+](=O)[O-] [Zoalene]	> 90	
CCCCNC(=S)NCCCC [N,N'-Dibutylthiourea]	> 90	
CCCOc1ccccc1-c1nc2nn[nH]c2c(=O)[nH]1 [Zaprinast]	> 50	
Cc1cn([C@H]2C[C@H](O)[C@@H](CO)O2)c(=O)[nH]c1=O [Thymidine]	> 50	
O=C(O)COc1ccc(Cl)cc1 [4-Chlorophenoxyacetic acid]	> 90	
CC(=O)Nc1cccc(N)c1 [3-Aminoacetanilide]	> 90	
CC(C)=CCCC(C)CCOC=O (stereo not shown) [3,7-Dimethyloct-6-en-1-yl formate]	> 90	
CCOc1ccc(NC(C)=O)cc1N [3-Amino-4-ethoxyacetanilide]	> 90	
COC(C)(C)CCCC(C)CC=O (stereo not shown) [7-Methoxy-3,7-dimethyloctanal]	> 90	
CC(C)(C)OC(=O)N1CC(N)C1 [Lithium sulfate]	> 5	
O=C(NCC(O)CO)c1c(I)c(C(=O)NCC(O)CO)c(I)c(N(CCO)C(=O)CO)c1I (stereo not shown) [Ioversol]	> 20	
O=C(c1ccccc1)c1cccc(O)c1 [3-Hydroxybenzophenone]	> 90	
c1cc2c3c(c1)ccc1cccc(c13)C2 [4H-Cyclopenta(def)phenanthrene]		CC50 at 24 h (AC50 (uM) modified / 1000, Tox21_110001=Tox21_201057, viability, 1 nM T3 present, 24 h): > 90 µM
CC(=O)OCC(=O)[C@@]1(OC(C)=O)[C@@H](C)C[C@H]2[C@@H]3C[C@H](F)C4=CC(=O)C=C[C@]4(C)[C@@]3(F)[C@@H](O)C[C@@]21C [Diflorasone diacetate]	> 50	
O=C(Nc1ccccc1)c1ccccc1I [Benodanil]		CC50 at 24 h (AC50 (uM) modified / 1000, Tox21_110001=Tox21_300420, viability, 1 nM T3 present, 24 h): > 90 µM
c1ccc2c(c1)Cc1ccccc1-2 [Fluorene]	> 90	

Compound	CC50 at 24 h (AC50 (uM) modified / 1000) [µM]	further results
Cc1ccc(S(=O)(=O)NC2CCCCC2)cc1 [N-Cyclohexyl-4-methylbenzenesulfonamide]	> 90	
CCCCCCCC(=O)OC [Methyl octanoate]	> 90	
CCN1CCC[C@H]1CNC(=O)c1c(OC)ccc(Br)c1OC [Remoxipride]	> 50	
O=C(OCCOCCOCCOC(=O)c1ccccc1)c1ccccc1 [Triethylene glycol dibenzoate]	> 90	
CC(C)N1C(=O)N(c2ccccc2)CS/C1=N\C(C)(C)C [Buprofezin]	45.1	
CN1COCN(Cc2cnc(Cl)s2)/C1=N/[N+](=O)[O-] [Thiamethoxam]	> 90	
O[C@H]1[C@H](O)[C@@H](O)[C@H](O)[C@@H](O)[C@H]1O [myo-Inositol]	> 90	
S=C(NC1CCCCC1)NC1CCCCC1 [N,N'-Dicyclohexylthiourea]	> 90	
OCC1(CO)COC(C(Cl)(Cl)Cl)OC1 [Penthrichloral]	> 50	
C=CC(=O)OCC(COC(=O)C=C)(COC(=O)C=C)COC(=O)C=C [Pentaerythritol tetraacrylate]	3	
CCCCCCCCCC(=O)OCC [Ethyl decanoate]	> 90	
CCCCN(CCO)CCO [N-Butyldiethanolamine]	> 90	
CCc1cccc(C)c1 [3-Ethyltoluene]	> 90	
CC(C#N)(CCC(=O)O)N=NC(C)(C#N)CCC(=O)O (stereo not shown) [4,4'-Diazene-1,2-diylbis(4-cyanopentanoic acid)]	> 90	
CC(C(=O)O)c1ccc2c(c1)[nH]c1ccc(Cl)cc12 (stereo not shown) [Carprofen]	> 50	
CCN1CCC2(CC1)COc1cc3c(cc12)N(C(=O)c1ccc(-c2ccc(-c4nnc(C)o4)cc2C)cc1)CC3 [SB236057A]	3	
CC(C)CN(C[C@@H](O)[C@H](Cc1ccccc1)NC(=O)O[C@H]1CO[C@H]2OCC[C@H]21)S(=O)(=O)c1ccc(N)cc1 [Darunavir]	> 50	
C/C=C(\C)C(=O)OC/C=C(\C)CCC=C(C)C [Geranyl tiglate]	> 90	
COCC(O)CO (stereo not shown) [1-O-Methylglycerol]	> 100	
Cn1c(=O)c2c(ncn2CCOC(=O)C(C)(C)Oc2ccc(Cl)cc2)n(C)c1=O [Etofylline clofibrate]	> 50	
COc1ccc(COC=O)cc1 [4-Methoxybenzyl formate]	> 90	
C=CCCCCCCCCC(=O)OC [Methyl 10-undecenoate]	> 50	
CC(C)(C)C(=O)/C=C/c1ccc(Cl)cc1 [1-(4-Chlorophenyl)-4,4-dimethylpent-1-en-3-one]	> 90	
CCC(CC)(CC(=O)Nc1cccc(/C=C/c2nc(C3CCC3)cs2)c1)C(=O)O [Cinalukast]	> 50	
BrC/C=C/CBr [(E)-1,4-Dibromo-2-butene]	> 20	
COc1ccc2[nH]cc(CCN(C(C)C)C(C)C)c2c1 [5-Methoxy-N,N-diisopropyltryptamine hydrochloride]		CC50 at 24 h (AC50 (uM) modified / 1000, Tox21_110001=Tox21_112880, viability, 1 nM T3 present, 24 h): > 100 µM

Compound	CC50 at 24 h (AC50 (uM) modified / 1000) [µM]	further results
NCCOCCN [2,2'-Oxybis(ethylamine)]	> 90	
O=S(=O)(c1ccc(Cl)cc1)c1cc(Cl)c(Cl)cc1Cl [Tetradifon]	60.5	
O=[N+]([O-])c1ccc(CBr)cc1 [4-Nitrobenzylbromide]	> 100	
C[C@H](CS)C(=O)N1CCC[C@H]1C(=O)O [Captopril]	> 50	
C[C@]12N[C@H](Cc3ccccc31)c1ccccc12 [Dizocilpine maleate]		CC50 at 24 h (AC50 (uM) modified / 1000, Tox21_110001=Tox21_111251, viability, 1 nM T3 present, 24 h): > 50 µM
C=C(C)[C@@H]1CC=C(C)C(=O)C1 [R-(-)-Carvone]	> 90	
CCCCCCNC(=O)n1cc(F)c(=O)[nH]c1=O [Carmofur]	8.69	
O=C(CO)[C@@H](O)[C@@H](O)[C@H](O)CO [D-Tagatose]	> 50	
N#CC(C#N)=Cc1ccc(O)c(O)c1 [Tyrphostin 23]	16.8	
CC(C)N(C(=O)COc1nnc(C(F)(F)F)s1)c1ccc(F)cc1 [Flufenacet]	> 90	
CNC1(c2ccccc2Cl)CCCCC1=O (stereo not shown) [Ketamine]	> 50	
N#Cc1c(F)cccc1F [2,6-Difluorobenzonitrile]	> 90	
C#CC(C)(O)CC(C)C (stereo not shown) [3,5-Dimethyl-1-hexyn-3-ol]	> 90	
CCC(C)c1ccc(O)cc1 (stereo not shown) [4-(Butan-2-yl)phenol]	61.9	
CN1CCC[C@@H]1Cc1c[nH]c2ccc(CCS(=O)(=O)c3ccccc3)cc12 [Eletriptan]	21.1	
CO/N=C(\C(=O)N[C@@H]1C(=O)N2C(C(=O)O)=CCS[C@H]12)c1csc(N)n1 [Ceftizoxime sodium]	> 50	
O=NN(CCO)CCO [N-Nitrosodiethanolamine]		CC50 at 24 h (AC50 (uM) modified / 1000, Tox21_110001=Tox21_200283, viability, 1 nM T3 present, 24 h): > 90 µM
CC(C)NCC(O)c1ccccc1Cl (stereo not shown) [Clorprenaline hydrochloride]	> 50	
CCN(CC)c1ccccc1 [N,N-Diethylaniline]	> 90	
CC(C)[C@@H]1CC[C@@H](C)C[C@H]1O [Menthol]	> 90	
CC(C)CCCC(C)CCO (stereo not shown) [3,7-Dimethyloctan-1-ol]	> 90	
C=C1C[C@]23C[C@@]1(O)CC[C@H]2[C@@]12C=C[C@H](O)[C@@](C)(C(=O)O1)[C@H]2[C@@H]3C(=O)O [Gibberellic acid]	> 90	
CCCCCCOCCO [2-Hexyloxyethanol]	> 90	
CCCC(=O)O[C@]1(C(=O)COC(=O)CC)[C@@H](C)C[C@H]2[C@@H]3CCC4=CC(=O)C=C[C@]4(C)[C@@]3(F)[C@@H](O)C[C@@]21C [Betamethasone butyrate propionate]	> 50	
